Test results taken from patent US20240115656A1, “Treatment of Constipation-Predominant Irritable Bowel Syndrome” (Ironwood Pharmaceuticals, Inc., priority 2010, published 2024).
Positions of bridges follow the written chain, without caps; N, C: chain ends. Residues, ends and D or L forms follow the SMILES beside them.

Columns and labels:
[1] = tested on: patients meeting modified Rome II criteria for constipation-predominant irritable bowel syndrome; test: Trial 1 (LIN-MD-31): randomized, double-blind, placebo-controlled trial with 12-week treatment period and randomized withdrawal period; format: in vivo, human
Procedure: (§1) Linaclotide capsules from Example 4 were administered in two multicenter, randomized, double-blind, placebo-controlled parallel-group trials.
Trial 1 (LIN-MD-31) was conducted on approximately 800 patients meeting modified Rome II criteria for constipation-predominant irritable bowel syndrome. The trial included a two-week pretreatment baseline period, a 12-week treatment period, and a randomized withdrawal period (see FIG. 1A).
(§2) The Pretreatment Period is defined as the 14 to 21 calendar days immediately before starting the trial during which patients provided information related to their daily bowel habits, daily assessment of the symptom severity (such as, e.g., abdominal pain), constipation severity, and use of other medicines, laxatives, suppositories, and/or enemas. Patients who satisfied the necessary criteria were entered into the Treatment Period.
(§3) In both trials, the Treatment Period began with randomization. In Trial 1, treatment lasted for 12 weeks. In Trial 2, treatment lasted for 26 weeks. Patients were randomized to approximately equal-sized treatment groups consisting of 266 μg linaclotide or a placebo, taken once daily in the morning 30 minutes before breakfast. Patients continued to provide daily assessments such as their daily bowel habit assessments and daily patient symptom severity assessments.
(§4) In both trials, daily assessment data for patients in both treatment groups were compiled to give the following primary, co-primary and secondary treatment efficacy endpoints, which have been defined by United States and European regulatory agencies for the study of the efficacy of IBS-C.
(§5) A patient was classified as a 9/12 Week APC 3+1 Responder if they were a weekly APC 3+1 Responder for ≥9 out of the 12 (i.e., 9/12) weeks of the study.
(§6) A patient was classified as a 9/12 Week CSBM 3+1 Responder if they were a weekly CSBM 3+1 Responder for ≥9/12 weeks.
(§7) A patient was classified as a 9/12 Week Abdominal Pain Responder if they were a weekly Abdominal Pain Responder for ≥9/12 weeks.
(§8) A patient was classified as a 6/12 Week APC+1 Responder if they were a weekly APC+1 Responder for ≥6 out of the 12 (i.e., 6/12) weeks of the study.
(§9) Also compiled from the patient daily data were the following secondary efficacy endpoints: • Change From Baseline (i.e., change from pre-treatment period) in CSBM Frequency Rate (measured as a weekly rate); • Change From Baseline (“CFB”) in SBM Frequency Rate (weekly rate); • Change From Baseline in Stool Consistency (measured on a 7-point BSFS); • Change From Baseline in Severity of Straining (measured on a 5-point scale); • Change From Baseline in Abdominal Pain (measured on a 11-point numerical rating scale and scored 0-10); • Change From Baseline in Abdominal Discomfort (measured on […] numerical rating scale and scored 0-10); • Change From Baseline in Bloating (measured on a 11-point numerical rating scale and scored 0-10); • 6/12 Week CSBM+1 Responder; • 6/12 Week Abdominal Pain Responder; and • Change From Baseline in Percent of Abdominal Pain-free Days (Pain-free is a score of 0 on the 0-10 point scale).
Patients who were randomized to linaclotide in the Treatment Period and completed the 12 weeks of the Treatment Period, the RW Population, were randomized to treatment with linaclotide or placebo in the RW Period as follows: half of the RW Population received placebo for the first half of the RW Period followed by administration of 266 μg linaclotide; one quarter of the RW Population received 266 μg linaclotide for the entire RW Period and the remaining one quarter of the RW Population received 266 μg linaclotide for the first half of the RW Period and placebo for the remainder of the RW Period. Patients that were randomized to placebo in the Treatment Period and completed the 12 weeks of the Treatment Period received 266 μg linaclotide in the RW Period.

[2] = tested on: patients meeting modified Rome II criteria for constipation-predominant irritable bowel syndrome; test: Trial 2 (MCP-103-302): randomized, double-blind, placebo-controlled trial with 26-week treatment period; format: in vivo, human
Procedure: as §1
Trial 2 (MCP-103-302) was conducted on approximately 805 patients meeting modified Rome II criteria for constipation-predominant irritable bowel syndrome (<3 CSBM/wk, ≤5 SBM/wk, abdominal pain≥3 on a 0-10 scale.) As in Trial 1, the trial included a two-week pretreatment baseline period; however, the treatment period was continued for 26 weeks rather than 12 weeks as in Trial 1, and no randomized withdrawal period was performed (see FIG. 1B).
as §2, §3, §4, §5, §6, §7, §8
In Trial 2, the above co-primary efficacy parameters, 12-week Abdominal Pain/Abdominal Discomfort Responder and 12-week IBS Degree of Relief Responder, were also computed for the full 26 week treatment period.
as §9

[3] = Systemic levels of linaclotide after oral administration; format: in vivo; details: after oral administration at therapeutic dose levels
[4] = tested on: chronic constipation (CC); details: Phase 2b studies for CC; four-week treatment period; cited from earlier work
[5] = 266 μg linaclotide group, once daily, 12 weeks
[6] = 266 μg linaclotide group, once daily
[7] = 266 μg linaclotide group, once daily, first 12 weeks
[8] = 26-week treatment period, linaclotide-treated patients
[9] = after 12 weeks, linaclotide-treated patients
[10] = main secondary efficacy endpoint, full 26 week treatment period
[11] = throughout the 26-week treatment period, linaclotide-treated patients

Question: What does the source list for C[C@@H]1NC(=O)[C@@H]2CCCN2C(=O)[C@H](CC(N)=O)NC(=O)[C@@H]2CSSC[C@H](N)C(=O)N[C@H]3CSSC[C@H](NC1=O)C(=O)N[C@@H]([C@@H](C)O)C(=O)NCC(=O)N[C@H](C(=O)N[C@@H](Cc1ccc(O)cc1)C(=O)O)CSSC[C@H](NC(=O)[C@H](Cc1ccc(O)cc1)NC(=O)[C@H](CCC(=O)O)NC3=O)C(=O)N2 [linaclotide, Cys1 Cys2 Glu3 Tyr4 Cys5 Cys6 Asn7 Pro8 Ala9 Cys10 Thr11 Gly12 Cys13 Tyr14] (H-CCEYCCNPACTGCY-OH; disulfide 1-6, 2-10, 5-13)?
Answer: 6/12-week APC+1 pain responder rate [1, 5]: 33.6%; 6/12-week abdominal pain responder rate [1, 5]: 50.1%; 6/12 week CSBM+1 responder rate [1, 5]: 48.6%; 9/12-week APC 3+1 responder rate [1, 5]: 12.1%; 9/12-week CSBM 3+1 responder rate [1, 5]: 19.5%; 9/12-week abdominal pain responder rate [1, 5]: 34.3%; 12-week Abdominal Pain/Abdominal Discomfort Responder [1, 5]: 54.8%; 12-week IBS Degree of Relief Responder [1, 5]: 37.0%; rebound of IBS-C symptoms following discontinuation of linaclotide treatment ([1]; Randomized Withdrawal Period): no evidence of rebound of IBS-C symptoms; 12-week Abdominal Pain/Abdominal Discomfort Responder: Statistical Significance (266 μg vs. Placebo) ([1]; co-primary efficacy parameter): Yes; 12-week IBS Degree of Relief Responder: Statistical Significance (266 μg vs. Placebo) ([1]; co-primary efficacy parameter): Yes; adverse event: diarrhea with mild symptoms ([1]; linaclotide group): 9%; adverse event: diarrhea with moderate symptoms ([1]; linaclotide group): 8%; adverse event: diarrhea with severe symptoms ([1]; linaclotide group): 2%; overall rate of discontinuation due to adverse events ([1]; linaclotide group): 8%; patients reporting at least a 10% improvement in abdominal symptoms over 12 weeks ([1]; linaclotide treatment, FIG. 10): under 80%; adverse event: abdominal pain ([1]; linaclotide-treated patients): 5%; adverse event: diarrhea ([1]; linaclotide-treated patients): 19%; adverse event: flatulence ([1]; linaclotide-treated patients): 5%; adverse event: headache ([1]; linaclotide-treated patients): 5%; more CSBMs per week than with the placebo alone ([1]; on average, 12 weeks, FIG. 12C): about 1.5 CSBMs per week; time until abdominal pain was reduced over the pre-treatment baseline ([1]; on average, sustained throughout the treatment period): 1 to 3 days; 6/12 Week APC + 1 Responder: Statistical Significance (266 μg vs. Placebo) ([1]; primary efficacy endpoint): Yes; 9/12 Week APC 3 + 1 Responder: Statistical Significance (266 μg vs. Placebo) ([1]; primary efficacy endpoint): Yes; 9/12 Week Abdominal Pain Responder: Statistical Significance (266 μg vs. Placebo) ([1]; primary efficacy endpoint): Yes; 9/12 Week CSBM 3 + 1 Responder: Statistical Significance (266 μg vs. Placebo) ([1]; primary efficacy endpoint): Yes; 6/12 Week Abdominal Pain Responder: Statistical Significance (266 μg vs. Placebo) ([1]; secondary efficacy endpoint): Yes; 6/12 Week CSBM + 1 Responder: Statistical Significance (266 μg vs. Placebo) ([1]; secondary efficacy endpoint): Yes; 12-Week Abdominal Discomfort (CFB): Statistical Significance (266 μg vs. Placebo) ([1]; secondary efficacy endpoint): Yes; 12-Week Abdominal Pain (CFB): Statistical Significance (266 μg vs. Placebo) ([1]; secondary efficacy endpoint): Yes; 12-Week Bloating (CFB): Statistical Significance (266 μg vs. Placebo) ([1]; secondary efficacy endpoint): Yes; 12-Week CSBM Frequency Rate(CFB): Statistical Significance (266 μg vs. Placebo) ([1]; secondary efficacy endpoint): Yes; 12-Week Percent of Abdominal Pain-free Days (CFB): Statistical Significance (266 μg vs. Placebo) ([1]; secondary efficacy endpoint): Yes; 12-Week SBM Frequency Rate (CFB): Statistical Significance (266 μg vs. Placebo) ([1]; secondary efficacy endpoint): Yes; 12-Week Severity of Straining (CFB): Statistical Significance (266 μg vs. Placebo) ([1]; secondary efficacy endpoint): Yes; 12-Week Stool Consistency (CFB): Statistical Significance (266 μg vs. Placebo) ([1]; secondary efficacy endpoint): Yes; 12-week Abdominal Pain/Abdominal Discomfort Responder [2, 6]: 54.1%; 12-week IBS Degree of Relief Responder [2, 6]: 39.4%; 6/12-week APC+1 pain responder rate [2, 7]: 33.7%; 9/12-week APC 3+1 responder rate [2, 7]: 12.7%; 9/12-week CSBM 3+1 responder rate [2, 7]: 18.0%; 9/12-week abdominal pain responder rate [2, 7]: 38.9%; overall rate of discontinuation due to adverse events [2, 8]: 10.2%; patients discontinued due to diarrhea [2, 8]: 4.5%; overall rate of discontinuation due to adverse events ([2]; after 12 weeks, linaclotide group): 9%; adverse event: abdominal pain [2, 9]: 4%; adverse event: diarrhea [2, 9]: 18%; adverse event: flatulence [2, 9]: 3%; adverse event: headache [2, 9]: 3%; 12-week Abdominal Pain/Abdominal Discomfort Responder: Statistical Significance (266 μg vs. Placebo) ([2]; co-primary efficacy parameter): Yes; 12-week IBS Degree of Relief Responder: Statistical Significance (266 μg vs. Placebo) ([2]; co-primary efficacy parameter): Yes; 26-week Abdominal Pain/Abdominal Discomfort Responder: Statistical Significance (266 μg vs. Placebo) [2, 10]: Yes; 26-week IBS Degree of Relief Responder: Statistical Significance (266 μg vs. Placebo) [2, 10]: Yes; CSBMs per week compared with placebo ([2]; on average, 12 weeks after treatment, FIG. 12C): more CSBMs per week than with the placebo alone; time until abdominal pain was reduced over the pre-treatment baseline ([2]; on average, sustained throughout the 26 week treatment period): 1 to 3 days; 6/12 Week APC + 1 Responder: Statistical Significance (266 μg vs. Placebo) ([2]; primary efficacy endpoint): Yes; 9/12 Week APC 3 + 1 Responder: Statistical Significance (266 μg vs. Placebo) ([2]; primary efficacy endpoint): Yes; 9/12 Week Abdominal Pain Responder: Statistical Significance (266 μg vs. Placebo) ([2]; primary efficacy endpoint): Yes; 9/12 Week CSBM 3 + 1 Responder: Statistical Significance (266 μg vs. Placebo) ([2]; primary efficacy endpoint): Yes; 6/12 Week Abdominal Pain Responder: Statistical Significance (266 μg vs. Placebo) ([2]; secondary efficacy endpoint): Yes; 6/12 Week CSBM + 1 Responder: Statistical Significance (266 μg vs. Placebo) ([2]; secondary efficacy endpoint): Yes; 12-Week Abdominal Discomfort (CFB): Statistical Significance (266 μg vs. Placebo) ([2]; secondary efficacy endpoint): Yes; 12-Week Abdominal Pain (CFB): Statistical Significance (266 μg vs. Placebo) ([2]; secondary efficacy endpoint): Yes; 12-Week Bloating (CFB): Statistical Significance (266 μg vs. Placebo) ([2]; secondary efficacy endpoint): Yes; 12-Week CSBM Frequency Rate(CFB): Statistical Significance (266 μg vs. Placebo) ([2]; secondary efficacy endpoint): Yes; 12-Week Percent of Abdominal Pain-free Days (CFB): Statistical Significance (266 μg vs. Placebo) ([2]; secondary efficacy endpoint): Yes; 12-Week SBM Frequency Rate (CFB): Statistical Significance (266 μg vs. Placebo) ([2]; secondary efficacy endpoint): Yes; 12-Week Severity of Straining (CFB): Statistical Significance (266 μg vs. Placebo) ([2]; secondary efficacy endpoint): Yes; 12-Week Stool Consistency (CFB): Statistical Significance (266 μg vs. Placebo) ([2]; secondary efficacy endpoint): Yes; adverse event: abdominal pain [2, 11]: 4.5%; adverse event: diarrhea [2, 11]: 19.7%; adverse event: flatulence [2, 11]: 3.7%; adverse event: headache [2, 11]: 3.2%; adverse event: viral gastroenteritis [2, 11]: 3.7%; levels of linaclotide seen systemically [3]: no detectable levels; effect on constipation, abdominal discomfort and bloating [4]: reduced constipation, abdominal discomfort, and bloating
